Molecules are shown by their SMILES. In brackets after ≈: the same amount, converted by molar mass. Several values for one entry are separate records, joined by “and”; a condition that tells them apart may be missing. Equal entries are not always repeated. Where only a bound is given, the exact number is not on record here.

Common to all, as to assay type: functional
Assay [1] concerns Aspergillus fumigatus. The experiment in a line: In vitro antifungal activity against Aspergillus fumigatus after 24 hr. incubation.
Assay [2] deals with Aspergillus fumigatus. The experiment in a line: In vitro for the antifungal activity against Aspergillus fumigatus.
Assay [3] has as its system Mus musculus. As to the kind of experiment: Number of mice cured after 10 days against Aspergillus fumigatus on intravenous infection to mice.
Assay [4] deals with Mus musculus. As to the kind of experiment: Number of mice surviving due to reduction in kidney fungal burden after 10 days against Aspergillus fumigatus on intravenous infection to mice.
The subject of assay [5] is Nakaseomyces glabratus. As to the kind of experiment: In vitro antifungal activity against Candida glabrata.
Assay [6] deals with Candida albicans. The experiment in a line: In vitro antifungal activity against Candida albicans.
Assay [7] deals with Cryptococcus neoformans. As to the kind of experiment: In vitro antifungal activity against Cryptococcus neoformans.
The test system of assay [8] is Pichia kudriavzevii. As to the kind of experiment: In vitro antifungal activity against Candida krusei.
In assay [9] the test system is Candida albicans. As to the kind of experiment: In vitro antifungal activity against Candida albicans after 24 hr. incubation.
Setting [10] is: Aspergillus fumigatus, 24 h, read-out: MFC.
Setting [11] is: Aspergillus fumigatus, read-out: MIC.

One may read the MFC as the smallest concentration meeting the test's criterion for killing the fungus. As usually defined, the MIC is the lowest concentration that inhibits growth of the organism. On to `CC(c1ncnc(Cl)c1F)C(O)(Cn1cncn1)c1ccc(F)cc1F` (stereo not given), for which the MFC in [1] (setting [10]) turned out to be 3.1 µg/mL (≈ 8.08 µM). The MIC in [2] (setting [11]) amounted to 3.1 µg/mL (≈ 8.08 µM).
Regarding `CC(c1ccncn1)C(O)(Cn1cncn1)c1ccc(F)cc1F` (stereo not given), in assay [3], the No. of cures stood at 0. In [4], this compound returned a No. of survivors of 3. Further, the minimal fungicidal concentration (MFC) in assay [1] (setting [10]) came out at 0.39 µg/mL (≈ 1.18 µM). For the same compound, the minimum inhibitory concentration (MIC) in assay [2] (setting [11]) was determined as 0.39 µg/mL (≈ 1.18 µM).
For the compound `C[C@@H](c1ccncc1)[C@](O)(Cn1cncn1)c1ccc(F)cc1F`, the No. of cures in assay [3] is listed as 0. In [4], the No. of survivors is 4. Besides, in assay [1] (setting [10]), the minimum fungicidal concentration (MFC) came out at 0.09 µg/mL (≈ 0.272 µM). Moreover, the minimal inhibitory concentration (MIC) in assay [2] (setting [11]) was determined as 0.05 µg/mL (≈ 0.151 µM).
Take `CC(c1cccnc1)C(O)(Cn1cncn1)c1ccc(F)cc1F` (stereo not given): the minimum inhibitory concentration (MIC) in [2] (setting [11]) stood at 0.39 µg/mL (≈ 1.18 µM).
Take `OC(Cc1ccccn1)(Cn1cncn1)c1ccc(F)cc1F` (stereo not given): the minimal inhibitory concentration (MIC) in [2] (setting [11]) came out at 25 µg/mL (≈ 79 µM).
As to `CC(c1ccncc1F)C(O)(Cn1cncn1)c1ccc(F)cc1F` (stereo not given), the No. of cures in assay [3] is 5. In [4], this compound had a No. of survivors of 5. For the same compound, in assay [1] (setting [10]), the minimum fungicidal concentration (MFC) is 0.19 µg/mL (≈ 0.545 µM). In addition, in assay [2] (setting [11]), the MIC came to 0.098 µg/mL (≈ 0.281 µM).
The compound `CC(c1ncncc1F)C(O)(Cn1cncn1)c1ccc(F)cc1F` (stereo not given) gave a No. of cures in assay [3] of 4. In addition, the No. of survivors in assay [4] is on record as 5. Further, the MFC in assay [1] (setting [10]) worked out at 0.78 µg/mL (≈ 2.23 µM). For the same compound, the MIC in assay [2] (setting [11]) came out at 0.39 µg/mL (≈ 1.12 µM).
For `CC(c1ncncc1Cl)C(O)(Cn1cncn1)c1ccc(F)cc1F` (stereo not given), in assay [1] (setting [10]), the minimum fungicidal concentration (MFC) worked out at 1.56 µg/mL (≈ 4.26 µM). Further, in assay [2] (setting [11]), the minimal inhibitory concentration (MIC) turned out to be 0.39 µg/mL (≈ 1.07 µM).
In the case of `CC(n1cncn1)C(O)(Cn1cncn1)c1ccc(F)cc1F` (stereo not given), the MFC in assay [1] (setting [10]) is 25 µg/mL (≈ 78.1 µM). For the same compound, the MIC in assay [2] (setting [11]) worked out at 12.5 µg/mL (≈ 39 µM).
Consider `OC(Cc1ccncc1)(Cn1cncn1)c1ccc(F)cc1F` (stereo not given), for which, in assay [2] (setting [11]), the minimum inhibitory concentration (MIC) is 3.1 µg/mL (≈ 9.8 µM).
In the case of `CC(c1ncnc(Cl)c1Cl)C(O)(Cn1cncn1)c1ccc(F)cc1F` (stereo not given), the minimum fungicidal concentration (MFC) in assay [1] (setting [10]) came to 12.5 µg/mL (≈ 31.2 µM). The minimum inhibitory concentration (MIC) in assay [2] (setting [11]) amounted to 3.1 µg/mL (≈ 7.75 µM).
For `CC(c1ccccn1)C(O)(Cn1cncn1)c1ccc(F)cc1F` (stereo in doubt; 23a), in assay [1], the minimal fungicidal concentration (MFC) was 100 µg/mL (≈ 303 µM). This compound gave an MIC in assay [2] of 12.5 µg/mL (≈ 37.8 µM).
For `CC(c1ccccn1)C(O)(Cn1cncn1)c1ccc(F)cc1F` (stereo in doubt; 23b) the same measures were 1.56 µg/mL (≈ 4.72 µM) and 0.39 µg/mL (≈ 1.18 µM).
With `OC(Cn1cncn1)(Cn1cncn1)c1ccc(F)cc1F` [FLUCONAZOLE], the MIC was 1.9 µg/mL (≈ 6.2 µM) in assay [5]; 1 µg/mL (≈ 3.27 µM) in [6]; 9.6 µg/mL (≈ 31.3 µM) in [7]; greater than 25 µg/mL in [8]; greater than 50 µg/mL in [2] (setting [11]). The minimal fungicidal concentration (MFC) in [1] (setting [10]) was greater than 50 µg/mL.
For the compound `CCC(C)n1ncn(-c2ccc(N3CCN(c4ccc(OCC5COC(Cn6cncn6)(c6ccc(Cl)cc6Cl)O5)cc4)CC3)cc2)c1=O` (stereo not given) [ITRACONAZOLE], the MIC in [5] was 0.19 µg/mL (≈ 0.269 µM); in [6] it was 0.12 µg/mL (≈ 0.17 µM); in assay [1], 0.19 µg/mL (≈ 0.269 µM); in assay [7], 0.39 µg/mL (≈ 0.553 µM); in [8], 0.05 µg/mL (≈ 0.0709 µM); in [2] it was 0.14 µg/mL and 0.39 µg/mL. This compound also returned a No. of cures in assay [3] of 3. Further, in [4], the No. of survivors is on record as 4.
As for `C[C@@H](c1ncncc1F)[C@](O)(Cn1cncn1)c1ccc(F)cc1F` [VORICONAZOLE], the MIC in [5] worked out at 0.19 µg/mL (≈ 0.544 µM); in [9] it was 0.03 µg/mL (≈ 0.0859 µM); in assay [7], 0.39 µg/mL (≈ 1.12 µM); in [8], 0.24 µg/mL (≈ 0.687 µM); in [2] (setting [11]), 0.09 µg/mL (≈ 0.258 µM).

These data come from ChEMBL document CHEMBL1129150, “Novel antifungal 2-aryl-1-(1H-1,2,4-triazol-1-yl)butan-2-ol derivatives with high activity against Aspergillus fumigatus” (1996).
